Results from patent US8344010B2, “Fused imidazole derivatives as TRPV3 antagonist” (Glenmark Pharmaceuticals S.A., priority 2008, dated 2013).

Target: T1, Human TRPV3 (Homo sapiens, UniProt Q8NET8)
T1 construct: expressed in transfected cells; host or cells: CHO cells (selected with G-418)
T1 sequence (Q8NET8 1-790): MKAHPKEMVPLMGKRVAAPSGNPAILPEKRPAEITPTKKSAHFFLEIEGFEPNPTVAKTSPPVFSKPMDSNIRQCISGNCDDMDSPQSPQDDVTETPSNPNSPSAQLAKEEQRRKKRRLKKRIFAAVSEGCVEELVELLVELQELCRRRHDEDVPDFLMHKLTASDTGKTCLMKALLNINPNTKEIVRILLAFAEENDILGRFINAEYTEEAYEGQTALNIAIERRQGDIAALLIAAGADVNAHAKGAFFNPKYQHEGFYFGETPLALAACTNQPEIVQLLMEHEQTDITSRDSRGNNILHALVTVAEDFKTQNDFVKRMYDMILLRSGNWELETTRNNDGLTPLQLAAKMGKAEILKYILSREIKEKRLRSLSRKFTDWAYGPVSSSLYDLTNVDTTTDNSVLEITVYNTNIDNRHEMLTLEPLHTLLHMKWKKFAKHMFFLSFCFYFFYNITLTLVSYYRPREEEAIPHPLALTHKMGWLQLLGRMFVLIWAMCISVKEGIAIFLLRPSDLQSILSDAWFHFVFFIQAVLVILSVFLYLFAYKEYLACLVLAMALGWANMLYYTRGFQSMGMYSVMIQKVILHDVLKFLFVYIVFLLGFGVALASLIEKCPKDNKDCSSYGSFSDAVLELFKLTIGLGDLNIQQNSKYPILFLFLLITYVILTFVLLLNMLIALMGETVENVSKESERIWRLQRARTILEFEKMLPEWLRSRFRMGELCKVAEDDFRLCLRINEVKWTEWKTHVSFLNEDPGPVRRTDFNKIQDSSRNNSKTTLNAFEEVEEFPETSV
Assay: 45Calcium uptake assay: inhibition of 2-APB induced cellular uptake of radioactive calcium
Type: cell-based
Conditions: human TRPV3 expressing CHO cells, 2-APB 500 μM; for inhibition at 1 µM: 1 μM test compound, read-out: Percentage Inhibition (1 μM); for inhibition at 10 µM: 10 μM test compound, read-out: Percentage Inhibition (10 μM)
Description: The illustrative examples of the present invention are screened for TRPV3 activity according to a modified procedure described in Tóth, A., Kedei, N., Wang, Y. and Blumberg, P. M. Life Sciences (2003), 73, 487-498. The screening of the compounds can be carried out by other methods and procedures known to a person skilled in the art. Such screening methods may be found in (a) Hu, H.-Z. et al. J. Biol. Chem. (2004), 279, 35741-35747; (b) Smith, G. D. et al. Nature (2002), 418, 186-190; (c) Peier, A. M. et al. Science (2002), 296, 2046-2049.
Screening for TRPV3 antagonist using the ^45Calcium uptake assay The inhibition of TRPV3 receptor activation was followed as inhibition of 2-aminoethoxydiphenylborate (2-APB) induced cellular uptake of radioactive calcium. Test compounds were dissolved in dimethyl sulfoxide (DMSO) to prepare 20 mM stock solution and then diluted using plain medium with DMEM/F-12 containing 1.8 mM CaCl2 to get desired concentration. Final concentration of DMSO in the reaction was 0.5% (v/v). Human TRPV3 expressing CHO cells were grown in DMEM/F-12 medium with 10% FBS, 1% penicillin-streptomycin solution, 400 μg/ml of G-418. Cells were seeded 24 h prior to the assay in 96 well plates so as to get ˜50,000 cells per well on the day of experiment. Cells were treated with test compounds for 10 minutes followed by addition of 2-APB at a final concentration of 500 μM and 5 μCi/ml^45Ca^+2 for 4 minutes. Cells were washed and lysed using buffer containing 1% Triton X-100, 0.1% deoxycholate and 0.1% SDS. Radioactivity in the lysate was measured in Packardt Top count after addition of liquid scintillant. Concentration response curves were plotted as a % of maximal response obtained in the absence of test antagonist. IC50 value was calculated from concentration response curve by nonlinear regression analysis using GraphPad PRISM software.
Percentage inhibition at concentrations of 1.0 μM and 10.0 μM are given in the table along with IC50 details for selected examples.

Row | inhibition at 1 µM [%] | inhibition at 10 µM [%] | IC50 (class symbol) [nM] | IC50 (numeric value) [nM] | SMILES
1 | 95 | 99.1 | 50 to 100 | – | COc1cccc(/C=C/c2nc3cc(F)c(F)cc3n2-c2ccc(C#N)cn2)c1OC1CCCC1 [Example 68, 6-{2-[(E)-2-(2-Cyclopentyloxy-3-methoxyphenyl)vinyl]-5,6-difluoro-1H-benzimidazol-1-yl}nicotinonitrile]
2 | 72.2 | 84.6 | 100 to 500 | – | COc1cccc(/C=C/c2nc3ccccc3n2-c2ccc(C(F)(F)F)cc2)c1OCC1CC1 [Example 37, 2-[(E)-2-(2-Cyclopropylmethoxy-3-methoxyphenyl)vinyl]-1-[4-(trifluoromethyl)phenyl]-1H-benzimidazole]
3 | 47.3 | 86.6 | – | – | COc1cccc(/C=C/c2nc3ccccc3n2-c2ccc(C)cc2)c1OCC1CC1 [Example 31, 2-[(E)-2-(2-Cyclopropylmethoxy-3-methoxyphenyl)vinyl]-1-(4-methylphenyl)-1H-benzimidazole]
4 | 0 | 52.7 | – | – | COc1cccc(/C=C/c2nc3ccccc3n2-c2ccc(C#N)nn2)c1OC1CCCC1 [Example 20, 6-{2-[(E)-2-(2-[Cyclopentyloxy]-3-methoxyphenyl)vinyl]-1H-benzimidazol-1-yl}pyridazine-3-carbonitrile]
5 | 95.8 | 97.9 | 50 to 100 | – | COc1cccc(/C=C/c2nc3cc(OC(F)F)ccc3n2-c2ccc(C#N)cn2)c1OC1CCCC1 [Example 59, 6-{2-[(E)-2-(2-[Cyclopentyloxy]-3-methoxyphenyl)vinyl]-5-(difluoromethoxy)-1H-benzimidazol-1-yl}nicotinonitrile]
6 | 66.3 | 94.9 | – | – | FC(F)Oc1cccc(/C=C/c2nc3cccnc3n2-c2ccc(OC(F)(F)F)cc2)c1OCC1CCC1 [Example 100, 2-{(E)-2-[2-Cylobutylmethoxy-3-(difluoromethoxy)phenyl]vinyl}-3-[4-(trifluoromethoxy)phenyl]-3H-imidazo[4,5-b]pyridine]
7 | 93.7 | 96.8 | 50 to 100 | 69.2 | COc1cccc(/C=C/c2nc3cc(F)cc(F)c3n2-c2ccc(C#N)cn2)c1OC1CCCC1 [Example 79, 6-{5,7-Difluoro-2-[(E)-2-(2-[cyclopentyloxy]-3-methoxyphenyl)vinyl]-1H-benzimidazol-1-yl}nicotinonitrile]
8 | 12.8 | 78.5 | – | – | COc1cccc(/C=C/c2nc3ccccc3n2-c2ccccn2)c1OCC1CC1 [Example 1, 2-{(E)-2-[2-(Cyclopropylmethoxy)-3-methoxyphenyl]vinyl}-1-pyridin-2-yl-1H-benzimidazole]
9 | 95.1 | 98.1 | 50 to 100 | – | N#Cc1ccc(-n2c(/C=C/c3cccc(OC(F)F)c3OCC3CCC3)nc3cc(Cl)cnc32)nc1 [Example 102, 6-(6-Chloro-2-{(E)-2-[2-(cyclobutylmethoxy)-3-difluoromethoxyphenyl]vinyl}-3H-imidazo[4,5-b]pyridin-3-yl)nicotinonitrile]
10 | 82.9 | 95.9 | 100 to 500 | – | CCOC(=O)c1ccc(-n2c(/C=C/c3cccc(OC)c3OC3CCCC3)nc3ccccc32)nn1 [Example 19, Ethyl 6-{2-[(E)-2-(2-[Cyclopentyloxy]-3-methoxyphenyl)vinyl]-1H-benzimidazol-1-yl}pyridazine-3-carboxylate]
11 | 80.8 | 97.7 | 100 to 500 | – | CCOc1c(/C=C/c2nc3cc(F)c(F)cc3n2-c2ccc(C#N)cn2)cccc1OC [Example 63, 6-{2-[(E)-2-(2-Ethoxy-3-methoxyphenyl)vinyl]-5,6-difluoro-1H-benzimidazol-1-yl}nicotinonitrile]
12 | 22.4 | 79.7 | – | – | COc1cccc(/C=C/c2nc3ccccc3n2-c2nccs2)c1OC1CCCC1 [Example 47, 2-[(E)-2-(2-Cyclopentyloxy-3-methoxyphenyl)vinyl]-1-(1,3-thiazol-2-yl)-1H-benzimidazole]
13 | 32.1 | 30.2 | – | – | COC(=O)c1ccc(-n2c(/C=C/c3cccc(OC)c3OC3CCCC3)nc3ccc(F)cc32)nc1 [Example 60, Methyl 6-{2-[(E)-2-(2-Cyclopentyloxy-3-methoxyphenyl)vinyl]-6-fluoro-1H-benzimidazol-1-yl}nicotinate]
14 | 1.7 | 1.51 | – | – | COc1cccc(/C=C/c2nc3cc(F)c(F)cc3n2-c2ccc(C(=O)O)nn2)c1OC1CCCC1 [Example 74, 6-{2-[(E)-2-(2-Cyclopentyloxy-3-methoxyphenyl)vinyl]-5,6-difluoro-1H-benzimidazol-1-yl}pyridazine-3-carboxylic acid]
15 | 53.5 | 75.5 | – | – | CCOC(=O)c1ccc(-n2c(/C=C/c3cccc(OC)c3OC3CCCC3)nc3cc(F)c(F)cc32)nn1 [Example 73, Ethyl 6-{2-[(E)-2-(2-cyclopentyloxy-3-methoxyphenyl)vinyl]-5,6-difluoro-1H-benzimidazol-1-yl}pyridazine-3-carboxylate]
16 | 95.5 | 99 | < 50 | – | COc1cccc(/C=C/c2nc3cc(F)c(F)cc3n2-c2ccc(C#N)cn2)c1OCC1CCC1 [Example 67]
17 | 34.4 | 90.7 | – | – | COc1cccc(/C=C/c2nc3cc(F)c(F)cc3n2-c2ccc(C(N)=O)nn2)c1OC1CCCC1 [Example 75, 6-{2-[(E)-2-(2-Cyclopentyloxy-3-methoxyphenyl)vinyl]-5,6-difluoro-1H-benzimidazol-1-yl}pyridazine-3-carboxamide]
18 | 96.3 | 97.9 | 100 to 500 | – | COc1cccc(/C=C/c2nc3ccc(OC(F)F)cc3n2-c2ccc(C#N)cn2)c1OC1CCCC1 [Example 58, 6-{6-(Difluoromethoxy)-2-[(E)-2-(2-[cyclopentyloxy]-3-methoxyphenyl)vinyl]-1H-benzimidazol-1-yl}nicotinonitrile]
19 | 66.8 | 89 | > 500 | – | COc1cccc(/C=C/c2nc3ccccc3n2-c2ncc(Cl)cc2Cl)c1OCc1ccccc1F [Example 6, 1-(3,5-Dichloropyridin-2-yl)-2-{(E)-2-[2-(2-fluorobenzyloxy)-3-methoxyphenyl]vinyl}-1H-benzimidazole]

Row | SMILES | inhibition at 1 µM [%] | inhibition at 10 µM [%] | IC50 (class symbol) [nM] | IC50 (numeric value) [nM]
20 | COc1cccc(/C=C/c2nc3cc(F)c(F)cc3n2-c2ccc(C#N)cn2)c1OCC(C)C [Example 66, 6-{5,6-Difluoro-2-[(E)-2-(2-isobutoxy-3-methoxyphenyl)vinyl]-1H-benzimidazol-1-yl}nicotinonitrile] | 98.6 | 99.5 | 100 to 500 | –
21 | CCCCOc1c(/C=C/c2nc3cc(F)c(F)cc3n2-c2ccc(C#N)cn2)cccc1OC [Example 64, 6-{2-[(E)-2-(2-Butoxy-3-methoxyphenyl)vinyl]-5,6-difluoro-1H-benzimidazol-1-yl}-nicotinonitrile] | 96.4 | 99.9 | 100 to 500 | –
22 | CCCCOc1c(/C=C/c2nc3cccnc3n2-c2ccc(C#N)cn2)cccc1OC [Example 86, 6-{2-[(E)-2-(2-Butoxy-3-methoxyphenyl)vinyl]-3H-imidazo[4,5-b]pyridin-3-yl}nicotinonitrile] | 92.6 | 95.2 | 100 to 500 | –
